In data set [1] the test system is lung cancer cell line H820. Kind of data set: MTT assay, cell viability inhibition in lung cancer cell line H820. Type of data set: cell-based. For orientation: Tetrazolium dyes change colour on reduction, which living cells bring about.
Procedure: First, [sequence] was administered at a concentration of 10 μM to H820, and then, the targeted anticancer drug Osimertinib was administered either alone or in combination at a concentration of 5 μM, and the cell viability inhibitory effect was compared 48 hours later.
For data set [2], the system named is breast cancer cell line HCC1937. The data set is described as follows: MTT assay, cell viability inhibition in breast cancer cell line HCC1937. Type of data set: cell-based. The procedure: After 24 hours, the cell viability inhibitory effect was compared.
After 48 hours, the cell viability inhibitory effect was compared.
After 72 hours, the cell viability inhibitory effect was compared.

Data set [3] concerns lung cancer cell line H1975. The data set is described as follows: MTT assay, cell viability inhibition in lung cancer cell line H1975. The conditions noted are these: for cell viability decrease compared to the control group: human; for cytotoxicity at 0.5 µM: Osimertinib 0.5 μM alone. The procedure: (§1) Specifically, cells were seeded at 2×10^3/100 μl per well on a 96-well plate, and after culturing for 24 hours, the compound according to the present invention was administered; 4 hours later, anticancer drugs were treated to each cancer cell. The treatment concentration and treatment time of the compound and anticancer drug are specifically described in the embodiment. After completing the treatment of the compound and anticancer drug, CellTiter-96® reagent (Promega Co., USA) was reacted at 5% CO2, 37° C. after adding 10 μl per well. After 3 hours, absorbance was measured at 490 nm using a spectrophotometer (SPECTROstar^Nano, BMG).
H1975 was treated with 3-PhPh-[…] at a concentration of 25 μM and after 4 hours, Osimertinib was administered at a concentration of 1.25 μM, either alone or in combination, and the cell viability inhibitory effects were compared 68 hours later.
Subsequently, H1975 was treated with 4-PhPh-[…] at a concentration of 2 μM, and at the same time, Osimertinib was administered at a concentration of 1 μM, either alone or in combination, and the cell viability inhibitory effects were compared 48 hours later.
Next. H1975 was treated with Ac-[…] at a concentration of 10 μM, and at the same time, Osimertinib was administered at a concentration of 0.5 μM, either alone or in combination, and the cell viability inhibitory effects were compared 48 hours later.
Furthermore, H1975 was treated with 4-MeOPh-[…] at a concentration of 10 μM and simultaneously, a targeted anticancer drug, Osimertinib, was administered either alone or in combination at a concentration of 0.5 μM, and after 48 hours, the effects of inhibiting cell viability were compared.
Similarly, the lung cancer cell line H1975 was treated with 4-PhPh-[…] at a concentration of 2 μM according to the MTT assay method described in the “Experimental Materials and Methods”. At the same time, Alimta, a chemotherapeutic agent, was administered either alone or in combination at a concentration of 0.2 μM, and after 48 hours, the effects of inhibiting cell viability were compared.
The anticancer effect of the triple co-administration was compared with the 3-PhPh-[…] single treatment group, and the Osimertinib and Alimta co-treatment group.

The test system of data set [4] is H1975/OR. The data set is described as follows: MTT assay, cell viability inhibition in lung cancer cell line H1975/OR. The note with it: for cell viability decrease compared to the control group: human, 5 μM. The procedure: as §1
Additionally, H1975/OR was treated with 3-PhPh-[…] at a concentration of 5 μM, and after 4 hours, the chemotherapeutic agent Alimta was administered either alone or in combination at a concentration of 0.1 μM, and after 72 hours, the effects of inhibiting cell viability were compared.
Subsequently, H1975/OR was treated with 3-PhPh-[…] at a concentration of 5 μM, and after 4 hours, the targeted anticancer drug Osimertinib was administered either alone or in combination at a concentration of 2.5 μM, and after 68 hours, the effects of inhibiting cell viability were compared.

The subject of data set [5] is non-small cell lung cancer cell line PC9/OR. The data set is described as follows: MTT assay, cell viability inhibition in non-small cell lung cancer cell line PC9/OR. Type of data set: cell-based. The conditions noted are these: 68 h.
Data set [6] relates to H1975 cell line. The note with it: H1975 Balb/C nude mice.
Procedure: H1975 cells were mixed with matrigel in a 1:1 ratio at a concentration of 5×10^6 cells/mouse, and each was subcutaneously inoculated at 200 μl into the flank of the mouse once. After the inoculation, it was confirmed that the volume of the formed tumor reached 70˜130 mm^3, and then random grouping was carried out. After the grouping, Osimertinib was administered orally every day, and after the growth of the tumor was inhibited, the point of re-growth was identified and the co-administration with the test substance was started. The test substances were administered intravenously 7 times at 2-day intervals.
After inoculating the H1975 cell line in 4-week-old female Balb/C nude mice, the presence and growth of the tumor were observed and the short and long axes of the tumor were measured to calculate the volume. When the volume of the tumor reached 70-120 mm^3, the groups were randomly separated and PBS, the negative control group, and Osimertinib at 5 mpk were orally administered daily.
The first day of administration was set as day 1, and the volume of the tumor was measured twice a week.
Accordingly, the individuals who orally administered 5 mpk Osimertinib every day for 28 days were further divided into two groups and observed until the 32nd day of administration.
Data set [7] deals with H820 lung cancer cell line. Kind of data set: Heterotransplant lung cancer animal model (H820), tumor growth. Type of data set: in vivo. The note with it: H820 nude mice; 3-PhPh-AQTGTGKT 10 mpk alone, 7 times at a two-day interval for 14 days; FIG. 6A. How it is done: The test substances were administered intravenously and orally 7 times at 2-day intervals.
Nude mice transplanted with H820 lung cancer cell line, an animal model of lung cancer described in the “Experimental Materials and Methods,” was treated 7 times at a two-day interval for 14 days with 3-PhPh-[…] at a dose of 10 mpk, and Osimertinib was orally administered daily at 2.5 mpk. Then, the growth of the tumor was compared.

Data set [8] relates to p-Beclin1S15. Kind of data set: Immunohistochemical staining of p-Beclin1S15 in H820 tumor tissue. Type of data set: in vivo. The conditions noted are these: H820 nude mice tumor; 3-PhPh-AQTGTGKT 10 mpk alone, 7 times at 2-day intervals; IHC; FIG. 7. How it is done:
Tissue embedded in paraffin was cut to a thickness of 4 μm and affixed to a slide, then thoroughly dried and the IHC experiment procedure was performed. Each slide was deparaffinized, and endogenous enzymes were removed using citrate buffer (pH 6.0). Then, p-Beclin1S15 antibody was diluted to 1:100 and treated for 15 hours at 4° C. After washing 4 times with TBST wash buffer, rabbit HRP was treated for secondary antibody reaction and reacted at room temperature for 30 minutes. After the substrate for the antibody reaction was added, when the color appeared, the slide was washed and sealed, and after slide scanning, the result was read.
Nude mice transplanted with H820 lung cancer cell line, an animal model of lung cancer described in the “Experimental Materials and Methods,” was treated 7 times at 2-day intervals for 14 days with 3-PhPh-[…] at a dose of 10 mpk. Osimertinib was orally administered daily at 2.5 mpk, followed by tumor sampling and p-Beclin1S15 immunostaining.

The text below walks through data of patent publication US20240207355A1, “PHARMACEUTICAL COMPOSITION FOR ENHANCING ANTICANCER EFFECT OF ANTICANCER DRUG” (L-BASE CO., LTD., priority 2021, published 2024).

Where two headings read alike, the source gives them in different places. Ends that are not written are not given here. Peptide text beside a SMILES is read from it. * marks the point of attachment. Benzoyl(3-Ph) = O=C(c1cccc(-c2ccccc2)c1)*; Benzoyl(4-OMe) = COc1ccc(C(=O)*)cc1

As to “AQTGTGKT [alanine-glutamine-threonine-glycine-threonine-glycine-lysine-threonine]”, in data set [1] (H820, AQTGTGKT 10 μM alone, 48 hours, FIG. 2A), the “cell viability decrease compared to the control group” value (from here on “cell viability decrease”) was “about 15%”. Also, the “decrease in cell viability compared to the control group” value (“decrease in cell viability” below) in data set [2] (HCC1937, AQTGTGKT 5 μM alone, 24 hours, FIG. 4A) is “no decrease in cell viability”.

Regarding `Nc1nc2[nH]cc(CCc3ccc(C(=O)N[C@@H](CCC(=O)O)C(=O)O)cc3)c2c(=O)[nH]1` [Alimta, Pemetrexed, reference compound], the cytotoxicity at 0.2 µM in data set [3] (Homo sapiens, NCI-H1975, 48 h, read-out: cell viability decrease compared to the control group, H1975, Alimta 0.2 μM alone, 48 hours, FIG. 1E) was ~6%. Further, in data set [4] (Homo sapiens, NCI-H1975, 72 h, read-out: cell viability decrease compared to the control group), the cytotoxicity at 0.1 µM is ~8.3%.

As for `COc1ccc(C(=O)N[C@@H](C)C(=O)N[C@@H](CCC(N)=O)C(=O)N[C@H](C(=O)NCC(=O)N[C@H](C(=O)NCC(=O)N[C@@H](CCCCN)C(=O)N[C@H](C(=O)O)[C@@H](C)O)[C@@H](C)O)[C@@H](C)O)cc1` ({Benzoyl(4-OMe)}-AQTGTGKT-OH), in data set [3] (48 h, 10 μM), the “cell viability decrease” value is on record as “about 6%”. In addition, the “decrease in cell viability” value in data set [2] (human, 48 h, 5 μM) is “about 4.6%”.

For the compound `O=C(c1cc(Cc2n[nH]c(=O)c3ccccc23)ccc1F)N1CCN(C(=O)C2CC2)CC1` [Olaparib, reference compound], the cytotoxicity at 2.5 µM in data set [2] (Homo sapiens, HCC1937, 24 h, read-out: decrease in cell viability compared to the control group) was ~1.2%.

As for `C=CC(=O)Nc1cc(Nc2nccc(-c3cn(C)c4ccccc34)n2)c(OC)cc1N(C)CCN(C)C` [Osimertinib], the cytotoxicity at 0.5 µM is ~12% in data set [3] (Homo sapiens, NCI-H1975, 48 h, read-out: cell viability decrease compared to the control group, H1975, 48 hours, FIG. 1C) and ~21% in data set [3] (Homo sapiens, NCI-H1975, 48 h, read-out: cell viability decrease compared to the control group, H1975, 48 hours, FIG. 1D). Also, in data set [3] (Homo sapiens, NCI-H1975, 48 h, read-out: cell viability decrease compared to the control group, H1975, Osimertinib 1 μM alone, 48 hours, FIG. 1B), the cytotoxicity at 1 µM is ~5%. Moreover, in data set [3] (Homo sapiens, NCI-H1975, 68 h, read-out: cell viability decrease compared to the control group, H1975, Osimertinib 1.25 μM alone, 68 hours, FIG. 1A), the cytotoxicity at 1.25 µM is ~19%. Further, the cytotoxicity at 2.5 µM in data set [4] (Homo sapiens, NCI-H1975, 68 h, read-out: cell viability decrease compared to the control group) is ~7%. Also, in data set [1] (NCI-H820, 48 h, read-out: cell viability decrease compared to the control group), the cytotoxicity at 5 µM is ~28%. Besides, the cytotoxicity at 6 µM in data set [1] (NCI-H820, 72 h, read-out: cell viability decrease compared to the control group) was ~15%. In addition, the cytotoxicity at 4 µM in data set [5] (PC9-OR, read-out: cell viability decrease compared to the control group) was ~10%. In addition, the “growth of the tumor compared to the PBS group” value in data set [6] (Osimertinib 5 mpk orally daily, before resistance, P<0.001) is “significantly suppressed”. The “weight loss or death of animals during the experiment” value in data set [6] (all groups) is “No weight loss or death”.

Regarding `C[C@H](NC(=O)c1cccc(-c2ccccc2)c1)C(=O)N[C@@H](CCC(N)=O)C(=O)N[C@H](C(=O)NCC(=O)N[C@H](C(=O)NCC(=O)N[C@@H](CCCCN)C(=O)N[C@H](C(=O)O)[C@@H](C)O)[C@@H](C)O)[C@@H](C)O` ({Benzoyl(3-Ph)}-AQTGTGKT-OH), the “cell viability decrease” value was “about 10%” in data set [3] (68 h, 25 μM); “about 17%” in data set [4] (68 h); “about 6.5%” in data set [4] (72 h); “about 8%” in data set [1] (human, 72 h, 40 μM); “approximately 0.2%” in data set [5] (human, 25 μM). In addition, the “decrease in cell viability” value in data set [2] (human, 72 h, 10 μM) is “about 3%”. Also, the “tumor viability reduction compared to the control group (PBS administered group)” value in data set [7] is listed as “about 38%”. In addition, in data set [8], the “expression of p-Beclin1S15 compared to the group receiving Osimertinib alone” value was “reduced”.
